Patent US20150258129A1, “Method for Increasing the Activity of Lysosomal Enzymes” (Mount Sinai School of Medicine of New York University, priority 1998, published 2015)

Columns and labels:
[1] = test system: almond β-galactosidase; settings: cited from earlier work
[2] = molecular target: T1, glucocerebrosidase (β-Glu), N370S/N370S (Homo sapiens, UniProt P04062, N409S); experiment: Intracellular enhancement of β-Glu activity in Gaucher fibroblasts (N370S/N370S); assay type: cell-based
T1 construct: endogenous in cells; host or cells: human Gaucher patient fibroblasts, genotype N370S/N370S
T1 sequence (P04062 40-536 N409S): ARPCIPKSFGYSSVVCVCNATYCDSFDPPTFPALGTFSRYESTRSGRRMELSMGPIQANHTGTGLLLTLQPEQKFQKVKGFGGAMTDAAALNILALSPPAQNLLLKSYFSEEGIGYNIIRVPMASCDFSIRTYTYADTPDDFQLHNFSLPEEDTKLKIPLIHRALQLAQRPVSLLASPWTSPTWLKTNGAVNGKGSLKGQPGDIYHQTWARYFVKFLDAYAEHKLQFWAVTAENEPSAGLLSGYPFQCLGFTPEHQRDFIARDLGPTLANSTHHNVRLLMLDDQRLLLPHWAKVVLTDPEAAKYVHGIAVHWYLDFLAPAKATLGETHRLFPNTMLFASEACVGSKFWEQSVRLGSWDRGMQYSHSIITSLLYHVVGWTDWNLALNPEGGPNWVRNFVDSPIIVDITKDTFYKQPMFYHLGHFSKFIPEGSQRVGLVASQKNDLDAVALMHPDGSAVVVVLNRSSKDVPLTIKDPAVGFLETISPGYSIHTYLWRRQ

OC[C@H]1CNC[C@@H](O)[C@@H]1O [compound 33, isofagomine]
inhibition of almond β-galactosidase (in words) [1]: potent inhibitor | increase of intracellular β-Glu activity in Gaucher fibroblasts ([2]; N370S/N370S, 1-50 μM in the culture medium, FIG. 8A): 55-80% | residual β-Glu activity in Gaucher cells, time course ([2]; N370S/N370S, day 1 or 2, FIG. 8B): did not change | increase of β-Glu activity in Gaucher cells, time course ([2]; N370S/N370S, day 5, FIG. 8B): more than 80% | β-Glu enhancement effect at high concentration ([2]; N370S/N370S, higher than 50 μM): nullified the enhancement effect | intracellular β-Glu activity in Gaucher fibroblasts (summary) ([2]; concentration ranges of 0.05-100 μM): effectively enhance
